Laboratory results published in patent US5041567A, “Antibacterial monic acid derivatives” (Beecham Group plc, priority 1982, dated 1991).
Values after ≈ are worked out from the molar mass of the structure shown. Read-outs that look alike come from different tables or passages of the source.

How the values were obtained:
M. suipneumoniae TAM 6N = test: MIC against mycoplasma in vitro; type: cell-based; conditions: Mesomycoplasma hyopneumoniae, TAM6N, 144 h
Past. haemolytica PA5 = test: MIC against veterinary bacteria in vitro; conditions: Mannheimia haemolytica, PA5, 18 h
Experimental: (§1) The activity of the compounds of the Examples against various veterinarily important bacteria, was assayed in vitro using two-fold serial dilutions in Diagnostic Sensitivity Test Agar inoculated with 10^4 organisms.

M. hyorhinis ATCC 25021 = test: MIC against mycoplasma in vitro; type: cell-based; conditions: Mesomycoplasma hyorhinis, ATCC25021, 144 h
E. coli NCTC 10418 [1] = test: MIC against human bacteria in vitro; type: cell-based; conditions: Escherichia coli, NCTC10418; E. coli NCTC 10418; agar with 5% chocolated horse blood, 18 hours, 37° C.; read-out: MIC
[2] = tested on: Staph. aureus 152 (pen. sens); test: MIC against veterinary bacteria in vitro; conditions: Staphylococcus aureus, 18 h
Experimental: as §1

[3] = tested on: Haemophilus influenzae Wy21; test: MIC against human bacteria in vitro; type: cell-based; conditions: Haemophilus influenzae Wy21; 5% chocolated horse blood agar, 18 hours; read-out: MIC
M. suipneumoniae JF 435 = test: MIC against mycoplasma in vitro; type: cell-based; conditions: Mesomycoplasma hyopneumoniae, JF435, 144 h
Strep. agalactiae 2788-B = test: MIC against human bacteria in vitro; type: cell-based; conditions: Streptococcus agalactiae; Strep. agalactiae 2788-B; 5% chocolated horse blood agar, 18 hours; read-out: MIC
E. coli NCTC 10418 [4] = test: MIC against veterinary bacteria in vitro; conditions: Escherichia coli, NCTC10418, 18 h
Experimental: as §1

Staph. aureus W2827 = test: MIC against human bacteria in vitro; type: cell-based; conditions: Staphylococcus aureus; Staph. aureus W2827; 5% chocolated horse blood agar, 18 hours; read-out: MIC
[5] = tested on: Strep. pyogenes R80/421-A; test: MIC against human bacteria in vitro; type: cell-based; conditions: Streptococcus pyogenes; Strep. pyogenes R80/421-A; 5% chocolated horse blood agar, 18 hours; read-out: MIC
M. suipneumoniae MS 16 = test: MIC against mycoplasma in vitro; type: cell-based; conditions: Mesomycoplasma hyopneumoniae, MS16, 144 h; M. suipneumoniae MS 16; 6 days, 37° C.; read-out: MIC
[6] = tested on: Strep. suis (group D) SPS11; test: MIC against veterinary bacteria in vitro; conditions: Streptococcus suis, 18 h
Experimental: as §1

Past. multocida PA1 = test: MIC against veterinary bacteria in vitro; conditions: Pasteurella multocida, PA1, 18 h
Experimental: as §1

M. gallisepticum S6 = test: MIC against mycoplasma in vitro; type: cell-based; conditions: Mycoplasmoides gallisepticum
Staph. aureus Russell = test: MIC against human bacteria in vitro; type: cell-based; conditions: Staphylococcus aureus; Staph. aureus Russell; 5% chocolated horse blood agar, 18 hours; read-out: MIC
[7] = tested on: M. suipneumoniae ATCC 25095; test: MIC against mycoplasma in vitro; type: cell-based; conditions: Mesomycoplasma hyopneumoniae, ATCC25095, 144 h
M. suipneumoniae NB12 = test: MIC against mycoplasma in vitro; type: cell-based; conditions: Mesomycoplasma hyopneumoniae, 144 h; M. suipneumoniae NB12; Friis broth, 0.9% agarose, 6 days, 37° C.; read-out: MIC
P. mirabilis 889 = test: MIC against human bacteria in vitro; type: cell-based; conditions: Proteus mirabilis; P. mirabilis 889; 5% chocolated horse blood agar, 18 hours; read-out: MIC
S. dublin S7 = test: MIC against veterinary bacteria in vitro; conditions: Salmonella enterica, S7, 18 h
Experimental: as §1

[8] = tested on: M. suipneumoniae NCTC 10110; test: MIC against mycoplasma in vitro; type: cell-based; conditions: Mesomycoplasma hyopneumoniae, NCTC10110, 144 h
M. suipneumoniae Str. 11 = test: MIC against mycoplasma in vitro; type: cell-based; conditions: Mesomycoplasma hyopneumoniae, 144 h; M. suipneumoniae Str. 11; 6 days, 37° C.; read-out: MIC
[9] = tested on: Corynebacterium xerosis 9755; test: MIC against human bacteria in vitro; type: cell-based; conditions: Corynebacterium xerosis 9755; 5% chocolated horse blood agar, 18 hours; read-out: MIC
Sarcina lutea 8340 = test: MIC against human bacteria in vitro; type: cell-based; conditions: Micrococcus luteus; Sarcina lutea 8340; 5% chocolated horse blood agar, 18 hours; read-out: MIC
[10] = tested on: M. bovigenitalium ATCC 14173; test: MIC against mycoplasma in vitro; type: cell-based; conditions: 144 h
[11] = tested on: Ps. aeruginosa NCTC 10662; test: MIC against human bacteria in vitro; type: cell-based; conditions: Pseudomonas aeruginosa, NCTC10662; Ps. aeruginosa NCTC 10662; 5% chocolated horse blood agar, 18 hours; read-out: MIC
M. suipneumoniae UCD 1 = test: MIC against mycoplasma in vitro; type: cell-based; conditions: Mesomycoplasma hyopneumoniae, UCD1, 144 h
E. coli E1 = test: MIC against veterinary bacteria in vitro; conditions: Escherichia coli, E1, 18 h
Experimental: as §1

Past. multocida PA2 = test: MIC against veterinary bacteria in vitro; conditions: Pasteurella multocida, PA2, 18 h
Experimental: as §1

M. dispar NCTC 10125 = test: MIC against mycoplasma in vitro; type: cell-based; conditions: 144 h
Strep. agalactiae SPA1 = test: MIC against veterinary bacteria in vitro; conditions: Streptococcus agalactiae, SPA1, 18 h
Experimental: as §1

Staph. aureus Oxford = test: MIC against human bacteria in vitro; type: cell-based; conditions: Staphylococcus aureus; Staph. aureus Oxford; 5% chocolated horse blood agar, 18 hours; read-out: MIC
[12] = tested on: M. suipneumoniae PW/C/210; test: MIC against mycoplasma in vitro; type: cell-based; conditions: Mesomycoplasma hyopneumoniae, 144 h; M. suipneumoniae PW/C/210; 6 days, 37° C.; read-out: MIC

SMILES | MIC (M. suipneumoniae TAM 6N) [µg/mL] | MIC (Past. haemolytica PA5) [µg/mL] | MIC (E. coli NCTC 10418 [1]) [µg/mL] | MIC [2] [µg/mL] | MIC [3] [µg/mL] | MIC (M. suipneumoniae JF 435) [µg/mL] | MIC (Strep. agalactiae 2788-B) [µg/mL] | MIC (E. coli NCTC 10418 [4]) [µg/mL] | MIC (Staph. aureus W2827) [µg/mL] | MIC [5] [µg/mL] | MIC (M. suipneumoniae MS 16) [µg/mL] | MIC [6] [µg/mL] | MIC (Past. multocida PA1) [µg/mL] | MIC (Staph. aureus Russell) [µg/mL] | MIC (M. suipneumoniae NB12) [µg/mL] | MIC (P. mirabilis 889) [µg/mL] | MIC (S. dublin S7) [µg/mL] | MIC [8] [µg/mL] | MIC (M. suipneumoniae Str. 11) [µg/mL] | MIC [9] [µg/mL] | also measured
C/C(=C\c1ncc(-c2cccc(S(C)(=O)=O)c2)o1)C[C@@H]1OC[C@H](C[C@@H]2O[C@H]2[C@@H](C)[C@H](C)O)[C@@H](O)[C@H]1O [Example 23, 5-m-Methylsulphonylphenyl-2-(1-normon-2-yl) oxazole A] | 1 (≈ 1.92 µM) | 80 (≈ 153 µM) | > 64 | 2.5 (≈ 4.79 µM) | 1 (≈ 1.92 µM) | 1 (≈ 1.92 µM) | 2 (≈ 3.83 µM) | > 80 | 16 (≈ 30.7 µM) | 0.5 (≈ 0.959 µM) | 0.5 (≈ 0.959 µM) | 10 (≈ 19.2 µM) | 5 (≈ 9.59 µM) | 16 (≈ 30.7 µM) | 0.5 (≈ 0.959 µM) | > 64 | > 80 | 1 (≈ 1.92 µM) | 0.5 (≈ 0.959 µM) | > 128 | MIC (M. hyorhinis ATCC 25021; M. hyorhinis ATCC 25021, 6 days, 37° C., read-out: MIC): 0.5 µg/mL (≈ 0.959 µM); MIC (M. gallisepticum S6; S6, 144 h): 1 µg/mL (≈ 1.92 µM); MIC ([7]; M. suipneumoniae ATCC 25095, 6 days, 37° C., read-out: MIC): 0.5 µg/mL (≈ 0.959 µM); MIC (Sarcina lutea 8340): > 128 µg/mL; MIC [10]: 0.1 µg/mL (≈ 0.192 µM); MIC [11]: > 64 µg/mL; MIC (M. suipneumoniae UCD 1): 1 µg/mL (≈ 1.92 µM); MIC (E. coli E1): > 80 µg/mL; MIC (Past. multocida PA2): 2.5 µg/mL (≈ 4.79 µM); MIC (M. dispar NCTC 10125; M. dispar NCTC 10125, 6 days, 37° C., read-out: MIC): 0.5 µg/mL (≈ 0.959 µM); MIC (Strep. agalactiae SPA1): 2.5 µg/mL (≈ 4.79 µM); MIC (Staph. aureus Oxford): 4 µg/mL (≈ 7.67 µM); MIC [12]: 0.5 µg/mL (≈ 0.959 µM)
C/C(=C\c1ncc(-c2ccc(S(=O)(=O)N(C)C)cc2)o1)C[C@@H]1OC[C@H](C[C@@H]2O[C@H]2[C@@H](C)[C@H](C)O)[C@@H](O)[C@H]1O [Example 24, 5-p-Dimethylaminosulphonylphenyl-2-(1-normon-2-yl)oxazole A] | 0.25 (≈ 0.454 µM) | 40 (≈ 72.6 µM) | > 64 | 0.625 (≈ 1.13 µM) | 4 (≈ 7.26 µM) | 0.25 (≈ 0.454 µM) | 2 (≈ 3.63 µM) | > 80 | 4 (≈ 7.26 µM) | 2 (≈ 3.63 µM) | 0.1 (≈ 0.182 µM) | 2.5 (≈ 4.54 µM) | 5 (≈ 9.08 µM) | 4 (≈ 7.26 µM) | 0.1 (≈ 0.182 µM) | > 64 | > 80 | 0.25 (≈ 0.454 µM) | 0.1 (≈ 0.182 µM) | > 128 | MIC (M. hyorhinis ATCC 25021): 0.1 µg/mL (≈ 0.182 µM); MIC (M. gallisepticum S6; 144 h, M. gallisepticum S6, 6 days, 37° C., read-out: MIC): 0.5 µg/mL (≈ 0.908 µM); MIC [7]: 0.1 µg/mL (≈ 0.182 µM); MIC (Sarcina lutea 8340): > 128 µg/mL; MIC [10]: 0.1 µg/mL (≈ 0.182 µM); MIC [11]: > 64 µg/mL; MIC (M. suipneumoniae UCD 1): 0.25 µg/mL (≈ 0.454 µM); MIC (E. coli E1): > 80 µg/mL; MIC (Past. multocida PA2): 2.5 µg/mL (≈ 4.54 µM); MIC (M. dispar NCTC 10125): 0.1 µg/mL (≈ 0.182 µM); MIC (Strep. agalactiae SPA1): 1.25 µg/mL (≈ 2.27 µM); MIC (Staph. aureus Oxford): 4 µg/mL (≈ 7.26 µM); MIC [12]: 0.1 µg/mL (≈ 0.182 µM)
